In PubChem BioAssay (NCI):
Several values for one entry are separate records, joined by “and”; a condition that tells them apart may be missing. Equal values may be shown once.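 Cultured in 96-well plates, cells were exposed to test compound for 48 hours across five concentrations. GI50: concentration for 50% inhibition of growth. Definition used: TGI = concentration required for complete inhibition of growth.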

The compounds below were run on LOX IMVI melanoma (assay: NCI anticancer screen, dose series, 48 h).

| SMILES | GI50 [µM] | TGI [µM] |
| --- | --- | --- |
| CN(C)CCN1CCC(Cc2ccccc2)CC1 | > 80 | > 80 |
| COc1cc2c3c(n(C)c(=O)c2cc1OC)-c1cc2c(cc1C3=O)OCO2 |  | > 73 |
| COc1ccc(/C=C\c2cc(OC)c(OC)c(OC)c2)cc1OCC(=O)O |  | > 100 |
| CCSc1nc(N=Cc2ccccc2O)c2cn[nH]c2n1 | 30.1 | > 100 |
| CSC[C@H](NC(=O)COc1cccc2cnccc12)C(=O)NC(Cc1ccccc1)C(O)C(=O)N1CSC[C@H]1C(=O)NC(C)(C)C (some centres undefined) |  | > 100 |
| O=C(Nc1ncc(Cc2cccc(C(F)(F)F)c2)s1)c1ccc2c(c1)OCCO2 | 0.565 | > 100 |
| C[C@H](CCOc1cccc(CC(=O)O)c1)N(Cc1cccc(C(F)(F)F)c1Cl)CC(c1ccccc1)c1ccccc1 | 5.13 | 18.5 |
| CNc1cc2oc(=O)cc(C)c2cc1C |  | > 100 |

The compounds below were run on SF-539 CNS (assay: NCI anticancer screen, dose series, 48 h).

| SMILES | GI50 | TGI |
| --- | --- | --- |
| Nc1c(C(=O)Nc2ccccn2)sc2nc3c(cc12)C(=O)CCC3 | 1.17 µM | 5.65 µM |
| Cc1nc2c(Br)cc(Br)cc2c(=O)n1-c1nnc(-c2cccc(Cl)c2Cl)c(N)n1 | 21.6 µM | 60 µM |
| N#CC(I)CS(=O)(=O)c1ccccc1 (centres undefined) | 18.2 µM | 32.5 µM |
| COc1ccc2c(=O)oc3c(OC)cc(CCN(C)C)c4c(=O)oc1c2c34 | 22.8 µM and 6.89 µM | 37.5 µM and 14 µM |
| COc1ccc(Cl)cc1NC(=O)c1ccc(NC2=C(Cl)C(=O)N(Cc3ccccc3)C2=O)cc1 | > 100 µM | > 100 µM |
| Cc1cccc(NC2=C(Cl)C(=O)c3nc(C)ccc3C2=O)c1 | 1.39 µM | 2.75 µM |
| COc1cc2c(cc1OCCCN1CCN(CCCOc3cc4c(cc3OC)C(=O)N3CC(F)(F)C[C@H]3C=N4)CC1)N=C[C@@H]1CC(F)(F)CN1C2=O | 3.05 µM | 9.15 µM |
| CCCCCCCCSC1=C(Cl)C(=O)C(OC)=C(OC)C1=O |  | 32.7 µM |
| COC(=O)C1=CN(CC2=CC(=O)C(C)=CC2=O)C=C(C(=O)OC)C1c1ccccc1OC | 21.2 µM | 60.3 µM |
| COc1cccc2c1O/C(=C\c1ccc([N+](=O)[O-])s1)C2=O | 3.08 µM | > 100 µM |
| COC(=O)/C=C/c1cc(OC(C)=O)c2c(c1)C(C(=O)OC)C(c1ccc(OC(C)=O)c(OC(C)=O)c1)O2 (centres undefined) | 0.0674 µM | 2.41 µM |
| O=C(O)c1ccc(CNCc2ccccc2)cc1 |  | > 100 µM |
| CCOC(=O)Nc1c(C)nc2ccccn12 | > 100 µM | > 100 µM |
| CC(C)=CCC1=C(O)c2ccccc2C(=O)C1=O |  | > 100 µM |
| O=[N+]([O-])c1ccccc1N=Nc1c(O)[nH]c2c(Cl)cc(Cl)cc12 |  | 50.2 µM |
| NC(=S)N/N=C/c1ncccc1O | 0.567 µM and 0.242 µM | 2.69 µM and 1.26 µM |
| C=C(CN(C)Cc1ccccc1)c1ccc(NC(=O)c2ccc(C(=C)CN(C)Cc3ccccc3)cc2)cc1 | 68.8 µM | > 100 µM |
| O=C(CC(=O)Nc1ccccc1)NNC(Sc1ccccc1)c1cc(N=Nc2ccc(Br)cc2)ccc1O (centres undefined) |  | 7.91 µM |
| Cc1cc(C(=O)CSC(=S)SC(C)(C)C)ccc1Cl |  | 35.7 µM |
| C=CC12CCN(CC1)C(C(O)c1ccnc3ccc(OC)cc13)C2 (centres undefined) | > 100 µM | > 100 µM |
| O=C(Nc1nc(-c2c[nH]c3ccccc23)cs1)c1n[nH]c(=O)c2ccccc12 | 1.68 µM | > 57.6 µM |
| CN(C)CCN1CCC(Cc2ccccc2)CC1 | > 80 µM | > 80 µM |
| COc1cc2c3c(n(C)c(=O)c2cc1OC)-c1cc2c(cc1C3=O)OCO2 |  | 23.9 µM |
| COc1ccc(/C=C\c2cc(OC)c(OC)c(OC)c2)cc1OCC(=O)O |  | 11.5 µM |
| CCSc1nc(N=Cc2ccccc2O)c2cn[nH]c2n1 | 34.2 µM | > 100 µM |
| CSC[C@H](NC(=O)COc1cccc2cnccc12)C(=O)NC(Cc1ccccc1)C(O)C(=O)N1CSC[C@H]1C(=O)NC(C)(C)C (some centres undefined) |  | 31.4 µM |
| O=C(Nc1ncc(Cc2cccc(C(F)(F)F)c2)s1)c1ccc2c(c1)OCCO2 | 0.251 µM | 0.916 µM |
| C[C@H](CCOc1cccc(CC(=O)O)c1)N(Cc1cccc(C(F)(F)F)c1Cl)CC(c1ccccc1)c1ccccc1 | 6.14 µM | 20.4 µM |
